Values of other authors as cited in patent US20090069233A1, “Agonist Peptides of Basic Fibroblast Growth Factor (bFGF) and the Method of Reduction of Wrinkles on Skin, Darkening of Hair and Acceleration of Wound Healing” (priority 2005, published 2009).

Experiments:
[1] = tested on: melanocytes obtained from the uninvolved areas of untreated vitiligo subjects; conditions: in vitro cell cultures
[2] = tested on: depigmented ear lobes of Guinea pigs; conditions: bFGF by interdermal injection
[3] = tested on: depigmented skin patches of Yucatan swine; conditions: bFGF by interdermal injection
[4] = tested on: artificial wound space; conditions: poly-vinyl alcohol sponge implant, histological and biochemical analysis
[5] = tested on: wounds of diabetic mice; conditions: wound healing experiments

Substance: bFGF: Basic fibroblast growth factor, a potent mitogen for melanocytes, keratinocytes and fibroblasts
- correction of abnormalities of melanocytes [1]: corrects all the abnormalities of melanocytes
- repigmentation of depigmented ear lobes [2]: found effect
- repigmentation of depigmented skin patches [3]: found effect
- neo vascularisation, number of fibroblasts and deposition of collagen in the wound space [4]: increase neo vasculatisation the number of fibroblasts and the deposition of collagen in the wound space
- side effects [5]: no side effects

Substance: epidermal growth factor: other growth factor used as specificity control in repigmentation animal models (NSDSECPLSHDGYCLHDGVCMYIEALDKYACNCVVGYIGERCQYRDLKWWELR; UniProt P01133 971-1023, looked up) [reference compound]
- repigmentation of depigmented ear lobes [2]: did not have any effect
- repigmentation of depigmented skin patches [3]: did not have any effect
